From patent publication US20140228287A1, “1-[(3-CYANO-PYRIDIN-2-YL)METHYL]-3-METHYL-7-(2-BUTYN-1-YL)-8-[3-(R)-AMINO-PIPERIDIN-1-YL]-AXANTHINE FOR THE TREATMENT OF A METABOLIC DISORDER OF A PREDOMINANTLY CARNIVOROUS NON-HUMAN ANIMAL” (BOEHRINGER INGELHEIM VETMEDICA GMBH, priority 2010, published 2014)
Counter-ions that a name gives are not always drawn. Like-named read-outs stand apart in the source and are kept apart here.

Experiments:
DPP IV [1] = molecular target: DPP IV (Homo sapiens, UniProt P27487); assay: In vitro DPP IV inhibition; type: biochemical; settings: for IC50: in vitro
Method: Studies were also conducted to assess the inhibitory effect of this compound on plasma DPP IV activity in several species.

plasmin = plasmin (Homo sapiens, UniProt P00747); assay: In vitro selectivity, human proteases: plasmin; type: biochemical; settings: up to 100 μM
From the text: (§1) In order to determine the in vitro selectivity of 1-[(3-cyano-pyridin-2-yl)methyl]-3-methyl-7-(2-butyn-1-yl)-8-[3-(R)-amino-piperidin-1-yl]-xanthine, the ability of this compound to inhibit a number of human proteases was investigated as described in Thomas et al. (2008), J. Pharmacol. Exp. Ther., vol. 325, p. 175-182, chapter In vitro DPP-4 Inhibition Assay, p. 176.

DPP-II = DPP-II (Homo sapiens, UniProt Q9UHL4); assay: In vitro selectivity, human proteases: DPP-II; type: biochemical; settings: up to 100 μM
From the text: as §1

M1 muscarinic receptors = M1 muscarinic receptors (Homo sapiens, UniProt P11229); assay: Selectivity panel, radio ligand binding assay: M1; settings: only interaction observed in full panel of receptors, ion channels and enzymes
Method: In selectivity assays as described in Dörje et al. (1991), J. Pharmacol. Exp. Ther., vol. 256, p. 727-733, chapter Radio ligand binding studies, p. 729, using the full panel of receptors, ion channels and enzymes, the only interaction observed with 1-[(3-cyano-pyridin-2-yl)methyl]-3-methyl-7-(2-butyn-1-yl)-8-[3-(R)-amino-piperidin-1-yl]-xanthine monohydrochloride was with M1 muscarinic receptors, with IC50 in a binding assay of 3 μM.

DPP IV [2] = molecular target: T1, DPP IV (Felis catus, UniProt Q9N2I7); assay: DPP IV activity in obese/non-obese cats, 7 days once daily dosing; type: in vivo, cat; settings: 9 mg daily, percent of 0 h
T1 construct: Blood samples for the determination of this compound and DPP IV activity were collected; from tissue; host or cells: plasma of domestic short hair / purpose-bred cats dosed orally
From the text: The aim of this exploratory, randomized, placebo controlled crossover study was to investigate the effect of 1-[(3-cyano-pyridin-2-yl)methyl]-3-methyl-7-(2-butyn-1-yl)-8-[3-(R)-amino-piperidin-1-yl]-xanthine monohydrochloride on DPP IV activity and on glucose concentrations in obese and non-obese cats after repeated oral administration over seven days.
Fourteen clinically healthy male and female (8 obese and 6 non-obese) purpose-bred cats were used in this study. The animals were randomly allocated to two groups of cats, obese and non-obese, and treated in a cross-over design with 9 mg 1-[(3-cyano-pyridin-2-yl)methyl]-3-methyl-7-(2-butyn-1-yl)-8-[3-(R)-amino-piperidin-1-yl]-xanthine monohydrochloride or placebo, once daily for 7 days, with a following wash-out period of 21 days.
Cats were fed once daily 40 min after administration of the compound or the placebo, respectively.
In parallel, DPP IV activity was assessed as above.

[3] = Single dose study (1.0/5.0/10.0 mg/kg) in cats: adverse events; type: in vivo, cat; settings: single oral 1, 5, 10 mg/kg
Method: The aim of this study was to investigate the PK/PD behaviour of 1-[(3-cyano-pyridin-2-yl)methyl]-3-methyl-7-(2-butyn-1-yl)-8-[3-(R)-amino-piperidin-1-yl]-xanthine in the cat following a single oral administration of 0, 1, 5 and 10 mg/kg body weight (dosages were based on the free base: 1 mg 1-[(3-cyano-pyridin-2-yl)methyl]-3-methyl-7-(2-butyn-1-yl)-8-[3-(R)-amino-piperidin-1-yl]-xanthine monohydrochloride corresponds to 0.923 mg 1-[(3-cyano-pyridin-2-yl)methyl]-3-methyl-7-(2-butyn-1-yl)-8-[3-(R)-amino-piperidin-1-yl]-xanthine free base).
Twelve clinically healthy male adult domestic short hair cats with a body weight range of 3.5-4.7 kg were used in this study. All animals were treated orally once via a stomach tube. Blood samples for pharmacokinetic and pharmacodynamic (DPP IV activity) investigations were drawn at 0 h (i.e. prior to treatment), 30 min as well as 1, 2, 4, 8, 8.5, 9, 12, 24, 36, 48, 72, 84 and 96 h after treatment. Blood samples for pharmacodynamic (glucagon-like peptide 1 concentrations) investigations were drawn at −16 (i.e. prior to feeding), −15.5, −15 h as well as at 8 h (i.e. prior to feeding), 8.5 and 9 h after treatment.

DPP IV [4] = molecular target: T1, DPP IV; assay: OGTT study in normal cats after 9 mg per cat: DPP IV activity; type: in vivo; settings: 9 mg per cat oral
Method: An OGTT like in Example 11 was performed in […] beginning 1 h after oral administration of 9 mg 1-[(3-cyano-pyridin-2-yl)methyl]-3-methyl-7-(2-butyn-1-yl)-8-[3-(R)-amino-piperidin-1-yl]-xanthine monohydrochloride or placebo (2 groups with 6 animals each; 3 male and 3 females per group).

T1 sequence (Q9N2I7 38-765 limits assumed): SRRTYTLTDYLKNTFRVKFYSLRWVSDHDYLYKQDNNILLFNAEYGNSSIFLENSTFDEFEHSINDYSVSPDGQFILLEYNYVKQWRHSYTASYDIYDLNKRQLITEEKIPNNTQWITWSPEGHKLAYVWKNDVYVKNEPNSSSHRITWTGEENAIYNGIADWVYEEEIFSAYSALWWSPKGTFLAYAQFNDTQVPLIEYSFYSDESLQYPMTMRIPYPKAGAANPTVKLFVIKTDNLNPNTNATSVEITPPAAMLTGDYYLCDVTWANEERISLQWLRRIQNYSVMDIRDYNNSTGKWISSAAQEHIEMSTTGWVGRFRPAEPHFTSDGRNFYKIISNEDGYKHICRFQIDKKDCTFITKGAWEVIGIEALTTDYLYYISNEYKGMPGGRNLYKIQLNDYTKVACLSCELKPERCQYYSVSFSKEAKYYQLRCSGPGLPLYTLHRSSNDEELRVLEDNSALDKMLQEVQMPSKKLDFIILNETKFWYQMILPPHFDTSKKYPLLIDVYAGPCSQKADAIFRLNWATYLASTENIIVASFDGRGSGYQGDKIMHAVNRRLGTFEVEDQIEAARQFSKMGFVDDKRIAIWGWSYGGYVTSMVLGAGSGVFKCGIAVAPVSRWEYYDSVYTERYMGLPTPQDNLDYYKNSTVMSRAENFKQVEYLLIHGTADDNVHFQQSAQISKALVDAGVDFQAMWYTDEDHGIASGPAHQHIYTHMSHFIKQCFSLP
DPP IV (Homo sapiens, UniProt P27487), sequence (P27487 whole entry, species assumed): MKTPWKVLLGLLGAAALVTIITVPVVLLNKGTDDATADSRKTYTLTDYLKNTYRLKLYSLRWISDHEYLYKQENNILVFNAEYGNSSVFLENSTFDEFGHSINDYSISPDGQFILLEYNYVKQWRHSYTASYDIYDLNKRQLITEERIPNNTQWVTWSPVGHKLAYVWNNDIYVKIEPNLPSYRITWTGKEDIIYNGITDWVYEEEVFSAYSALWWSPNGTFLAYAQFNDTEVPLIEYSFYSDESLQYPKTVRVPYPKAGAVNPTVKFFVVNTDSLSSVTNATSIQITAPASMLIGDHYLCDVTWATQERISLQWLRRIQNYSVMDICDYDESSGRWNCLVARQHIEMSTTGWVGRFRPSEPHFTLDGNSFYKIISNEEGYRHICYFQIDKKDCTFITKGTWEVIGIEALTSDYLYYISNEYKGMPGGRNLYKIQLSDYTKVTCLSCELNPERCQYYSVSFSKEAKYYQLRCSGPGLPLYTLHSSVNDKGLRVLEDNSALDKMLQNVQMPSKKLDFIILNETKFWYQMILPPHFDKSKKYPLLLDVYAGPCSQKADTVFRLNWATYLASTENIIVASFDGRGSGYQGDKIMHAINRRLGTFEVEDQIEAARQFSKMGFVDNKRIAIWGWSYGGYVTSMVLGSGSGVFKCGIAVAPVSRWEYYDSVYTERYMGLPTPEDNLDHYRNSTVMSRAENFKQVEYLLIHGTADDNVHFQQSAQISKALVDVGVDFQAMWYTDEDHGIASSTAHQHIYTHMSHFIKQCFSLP
M1 muscarinic receptors, sequence (P11229 whole entry): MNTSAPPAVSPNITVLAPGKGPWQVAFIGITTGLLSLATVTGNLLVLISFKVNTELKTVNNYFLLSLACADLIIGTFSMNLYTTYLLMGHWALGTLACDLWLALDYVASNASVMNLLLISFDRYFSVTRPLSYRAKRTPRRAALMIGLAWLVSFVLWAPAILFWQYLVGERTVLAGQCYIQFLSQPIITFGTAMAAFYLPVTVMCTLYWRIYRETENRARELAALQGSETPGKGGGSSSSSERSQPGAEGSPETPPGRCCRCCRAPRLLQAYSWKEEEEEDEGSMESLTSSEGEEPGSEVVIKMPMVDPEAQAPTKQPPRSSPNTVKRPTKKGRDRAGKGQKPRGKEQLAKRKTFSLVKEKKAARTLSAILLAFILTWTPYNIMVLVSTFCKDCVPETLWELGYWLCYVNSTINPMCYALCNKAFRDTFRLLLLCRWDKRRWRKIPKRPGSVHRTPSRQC
plasmin, sequence (P00747 581-810 limits assumed): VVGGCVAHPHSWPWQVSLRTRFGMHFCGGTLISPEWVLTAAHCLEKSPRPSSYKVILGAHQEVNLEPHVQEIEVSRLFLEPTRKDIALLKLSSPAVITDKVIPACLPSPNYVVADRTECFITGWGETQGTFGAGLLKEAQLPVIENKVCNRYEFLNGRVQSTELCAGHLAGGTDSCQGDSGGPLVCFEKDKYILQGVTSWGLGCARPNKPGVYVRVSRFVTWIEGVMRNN
plasmin, sequence (P00747 97-580 partner limits assumed): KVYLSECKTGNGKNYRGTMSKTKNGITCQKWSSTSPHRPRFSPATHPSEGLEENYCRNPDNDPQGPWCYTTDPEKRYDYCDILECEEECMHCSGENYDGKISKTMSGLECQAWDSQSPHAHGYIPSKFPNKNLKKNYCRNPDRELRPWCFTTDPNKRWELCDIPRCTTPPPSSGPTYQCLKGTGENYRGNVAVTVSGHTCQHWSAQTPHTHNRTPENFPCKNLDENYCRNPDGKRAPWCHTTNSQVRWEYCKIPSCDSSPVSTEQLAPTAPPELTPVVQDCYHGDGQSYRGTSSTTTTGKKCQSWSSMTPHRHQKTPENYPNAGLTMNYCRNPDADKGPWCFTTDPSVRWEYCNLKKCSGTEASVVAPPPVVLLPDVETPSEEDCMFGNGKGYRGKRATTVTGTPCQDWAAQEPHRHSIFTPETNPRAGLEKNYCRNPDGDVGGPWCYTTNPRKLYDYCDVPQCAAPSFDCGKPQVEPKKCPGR

With `CC#CCn1c(N2CCC[C@@H](N)C2)nc2c1c(=O)n(Cc1ncccc1C#N)c(=O)n2C` [1-[(3-cyano-pyridin-2-yl)methyl]-3-methyl-7-(2-butyn-1-yl)-8-[3-(R)-amino-piperidin-1-yl]-xanthine monohydrochloride] the IC50 (DPP IV [1]; GLP-1 as substrate) was roughly 0.18 nM, the IC50 (DPP IV [1]; dipeptide artificial substrate) was roughly 1 nM and the “mode of DPP IV inhibition” value (DPP IV [1]; mechanistic studies) was “competitive and reversible inhibitor”. The “inhibitory effect on plasmin” value (plasmin) was “did not exert any inhibitory effect”, the “inhibitory effect on DPP-II” value (DPP-II) was “did not exert any inhibitory effect” and the IC50 (M1 muscarinic receptors) was 3000 nM. For the same compound, the activity at 9 mg (DPP IV [2]; Non-obese cats (n = 6), 1 h, read-out: DPP-IV activity %, Max) was 25.4%, the activity at 9 mg (DPP IV [2]; Non-obese cats (n = 6), 1 h, read-out: DPP-IV activity %, Mean ± STD) was 13.8 ± 5.8% and the activity at 9 mg (DPP IV [2]; Non-obese cats (n = 6), 1 h, read-out: DPP-IV activity %, Median) was 11.3%. It also gave an activity at 9 mg (DPP IV [2]; Non-obese cats (n = 6), 1 h, read-out: DPP-IV activity %, Min) of 8.4%, an activity at 9 mg (DPP IV [2]; Non-obese cats (n = 6), 6 h, read-out: DPP-IV activity %, Max) of 25% and an activity at 9 mg (DPP IV [2]; Non-obese cats (n = 6), 6 h, read-out: DPP-IV activity %, Mean ± STD) of 14.4 ± 5.7%. It also gave an activity at 9 mg (DPP IV [2]; Non-obese cats (n = 6), 6 h, read-out: DPP-IV activity %, Median) of 11.4%, an activity at 9 mg (DPP IV [2]; Non-obese cats (n = 6), 6 h, read-out: DPP-IV activity %, Min) of 9.5% and an activity at 9 mg (DPP IV [2]; Non-obese cats (n = 6), 24 h, read-out: DPP-IV activity %, Max) of 45.1%. For the same compound, the activity at 9 mg (DPP IV [2]; Non-obese cats (n = 6), 24 h, read-out: DPP-IV activity %, Mean ± STD) was 20.1 ± 12%, the activity at 9 mg (DPP IV [2]; Non-obese cats (n = 6), 24 h, read-out: DPP-IV activity %, Median) was 15.3% and the activity at 9 mg (DPP IV [2]; Non-obese cats (n = 6), 24 h, read-out: DPP-IV activity %, Min) was 8.6%. It also gave an activity at 9 mg (DPP IV [2]; Non-obese cats (n = 6), 72 h, read-out: DPP-IV activity %, Max) of 27.9%, an activity at 9 mg (DPP IV [2]; Non-obese cats (n = 6), 72 h, read-out: DPP-IV activity %, Mean ± STD) of 18.2 ± 6% and an activity at 9 mg (DPP IV [2]; Non-obese cats (n = 6), 72 h, read-out: DPP-IV activity %, Median) of 18.9%. The activity at 9 mg (DPP IV [2]; Non-obese cats (n = 6), 72 h, read-out: DPP-IV activity %, Min) was 8.5%, the activity at 9 mg (DPP IV [2]; Non-obese cats (n = 6), 168 h, read-out: DPP-IV activity %, Max) was 23.5% and the activity at 9 mg (DPP IV [2]; Non-obese cats (n = 6), 168 h, read-out: DPP-IV activity %, Mean ± STD) was 17.4 ± 4.7%. For the same compound, the activity at 9 mg (DPP IV [2]; Non-obese cats (n = 6), 168 h, read-out: DPP-IV activity %, Median) was 18.2%, the activity at 9 mg (DPP IV [2]; Non-obese cats (n = 6), 168 h, read-out: DPP-IV activity %, Min) was 10.6% and the activity at 9 mg (DPP IV [2]; Obese cats (n = 8), 1 h, read-out: DPP-IV activity %, Max) was 17.5%. For the same compound, the activity at 9 mg (DPP IV [2]; Obese cats (n = 8), 1 h, read-out: DPP-IV activity %, Mean ± STD) was 12.1 ± 4%, the activity at 9 mg (DPP IV [2]; Obese cats (n = 8), 1 h, read-out: DPP-IV activity %, Median) was 11.1% and the activity at 9 mg (DPP IV [2]; Obese cats (n = 8), 1 h, read-out: DPP-IV activity %, Min) was 7.5%. It also gave an activity at 9 mg (DPP IV [2]; Obese cats (n = 8), 6 h, read-out: DPP-IV activity %, Max) of 20%, an activity at 9 mg (DPP IV [2]; Obese cats (n = 8), 6 h, read-out: DPP-IV activity %, Mean ± STD) of 11.9 ± 3.9% and an activity at 9 mg (DPP IV [2]; Obese cats (n = 8), 6 h, read-out: DPP-IV activity %, Median) of 10.5%. It also gave an activity at 9 mg (DPP IV [2]; Obese cats (n = 8), 6 h, read-out: DPP-IV activity %, Min) of 7.4%, an activity at 9 mg (DPP IV [2]; Obese cats (n = 8), 24 h, read-out: DPP-IV activity %, Max) of 26.5% and an activity at 9 mg (DPP IV [2]; Obese cats (n = 8), 24 h, read-out: DPP-IV activity %, Mean ± STD) of 17 ± 5.2%. For the same compound, the activity at 9 mg (DPP IV [2]; Obese cats (n = 8), 24 h, read-out: DPP-IV activity %, Median) was 15.4%, the activity at 9 mg (DPP IV [2]; Obese cats (n = 8), 24 h, read-out: DPP-IV activity %, Min) was 11.4% and the activity at 9 mg (DPP IV [2]; Obese cats (n = 8), 72 h, read-out: DPP-IV activity %, Max) was 23.9%. For the same compound, the activity at 9 mg (DPP IV [2]; Obese cats (n = 8), 72 h, read-out: DPP-IV activity %, Mean ± STD) was 18.4 ± 4.4%, the activity at 9 mg (DPP IV [2]; Obese cats (n = 8), 72 h, read-out: DPP-IV activity %, Median) was 18.5% and the activity at 9 mg (DPP IV [2]; Obese cats (n = 8), 72 h, read-out: DPP-IV activity %, Min) was 12.2%. The activity at 9 mg (DPP IV [2]; Obese cats (n = 8), 168 h, read-out: DPP-IV activity %, Max) was 39.8%, the activity at 9 mg (DPP IV [2]; Obese cats (n = 8), 168 h, read-out: DPP-IV activity %, Mean ± STD) was 19.9 ± 9% and the activity at 9 mg (DPP IV [2]; Obese cats (n = 8), 168 h, read-out: DPP-IV activity %, Median) was 19.2%. For the same compound, the activity at 9 mg (DPP IV [2]; Obese cats (n = 8), 168 h, read-out: DPP-IV activity %, Min) was 8.6%, the adverse events [3] was “No specific adverse events were observed” and the “inhibition of DPP IV activity” value (DPP IV [4]) was “more than 80%”.
